From patent EP4562003B1, “NOVEL 7-SUBSTITUTED INDOLE SULFONAMIDE DERIVATIVES” (F. Hoffmann-La Roche AG, priority 2022, dated 2024)

The compounds below were run against human GPR17 short isoform (Homo sapiens, UniProt Q13304) (assay: GPR17 cAMP assay (TR-FRET cAMP quantification, antagonist mode)). Conditions: CHO-K1 cells stably expressing human GPR17 short isoform; EC80 of agonist MDL29,951; forskolin 15µM; IBMX 0.5mM; 30 minutes at room temperature; read-out: hGPR17 cAMP IC50.
Type: cell-based
Procedure, shortened: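 CHO-K1 cells stably expressing untagged human GPR17 short isoform, 10'000 cells/well in HBSS/10mM HEPES/0.1% BSA pH 7.4. Compounds added with EC80 MDL29,951 plus 0.5mM IBMX, then 15µM forskolin; 30 min at room temperature. cAMP read by TR-FRET after 90 min lysis; normalized to reference antagonist maximal activity, sigmoidal fit.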

Sequence of human GPR17 short isoform (Q13304 29-367): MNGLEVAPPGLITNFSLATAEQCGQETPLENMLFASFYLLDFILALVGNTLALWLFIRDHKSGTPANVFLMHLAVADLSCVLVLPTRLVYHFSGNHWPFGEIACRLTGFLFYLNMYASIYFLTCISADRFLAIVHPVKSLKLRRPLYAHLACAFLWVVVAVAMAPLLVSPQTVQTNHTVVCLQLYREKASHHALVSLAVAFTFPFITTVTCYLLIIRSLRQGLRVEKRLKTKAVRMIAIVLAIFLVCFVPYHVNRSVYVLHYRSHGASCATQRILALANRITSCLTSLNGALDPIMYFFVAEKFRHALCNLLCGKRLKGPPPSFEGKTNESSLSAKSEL

| IC50 | Structure (SMILES) |
| --- | --- |
| 0.047 µM | COc1nc(NS(=O)(=O)c2c[nH]c3c(-c4cnc(C)cn4)c(Cl)ccc23)nc(OC)c1CC(F)F [Example 82, 6-chloro-N-[5-(2,2-difluoroethyl)-4,6-dimethoxy-pyrimidin-2-yl]-7-(5-methylpyrazin-2-yl)-1H-indole-3-sulfonamide] |
| 0.097 µM | COc1nc(NS(=O)(=O)c2c[nH]c3c(-c4cnc(C)cn4)c(Cl)ccc23)nc(OC)c1OC(F)F [Example 83, 6-chloro-N-[5-(difluoromethoxy)-4,6-dimethoxy-pyrimidin-2-yl]-7-(5-methylpyrazin-2-yl)-1H-indole-3-sulfonamide] |
| 0.052 µM | COc1nc(NS(=O)(=O)c2c[nH]c3c(-c4cnc(C)cn4)c(Cl)ccc23)nc(OC)c1OCC(F)F [Example 84, 6-chloro-N-[5-(2,2-difluoroethoxy)-4,6-dimethoxy-pyrimidin-2-yl]-7-(5-methylpyrazin-2-yl)-1H-indole-3-sulfonamide] |
| 0.044 µM | COc1nc(NS(=O)(=O)c2c[nH]c3c(-c4ncccn4)c(Cl)ccc23)nc(OC)c1C [Example 85, 6-chloro-N-(4,6-dimethoxy-5-methyl-pyrimidin-2-yl)-7-(2-pyrimidyl)-1H-indole-3-sulfonamide] |
| 0.029 µM | COc1nc(NS(=O)(=O)c2c[nH]c3c(-c4cncc(C)n4)c(Cl)ccc23)nc(OC)c1CC(F)F [Example 86, 6-chloro-N-[5-(2,2-difluoroethyl)-4,6-dimethoxy-pyrimidin-2-yl]-7-(6-methylpyrazin-2-yl)-1H-indole-3-sulfonamide] |
| 0.031 µM | COc1nc(NS(=O)(=O)c2c[nH]c3c(-c4cncc(C)n4)c(Cl)ccc23)nc(OC)c1OC(F)F [Example 87, 6-chloro-N-[5-(difluoromethoxy)-4,6-dimethoxy-pyrimidin-2-yl]-7-(6-methylpyrazin-2-yl)-1H-indole-3-sulfonamide] |
| 0.027 µM | COc1nc(NS(=O)(=O)c2c[nH]c3c(-c4cncc(C)n4)c(Cl)ccc23)nc(OC)c1OCC(F)F [Example 88, 6-chloro-N-[5-(2,2-difluoroethoxy)-4,6-dimethoxy-pyrimidin-2-yl]-7-(6-methylpyrazin-2-yl)-1H-indole-3-sulfonamide] |
| 0.042 µM | COc1nc(NS(=O)(=O)c2c[nH]c3c(-c4cncnc4)c(Cl)ccc23)nc(OC)c1OCC(F)F [Example 89, 6-chloro-N-[5-(2,2-difluoroethoxy)-4,6-dimethoxy-pyrimidin-2-yl]-7-(5-pyrimidyl)-1H-indole-3-sulfonamide] |
| 0.261 µM | COc1nc(NS(=O)(=O)c2c[nH]c3c(-c4cnc(Cl)cn4)c(Cl)ccc23)nc(OC)c1OCC(F)F [Example 90, 6-chloro-7-(5-chloropyrazin-2-yl)-N-[5-(2,2-difluoroethoxy)-4,6-dimethoxy-pyrimidin-2-yl]-1H-indole-3-sulfonamide] |
| 0.225 µM | COc1nc(NS(=O)(=O)c2c[nH]c3c(-c4cnc(Cl)cn4)c(Cl)ccc23)nc(OC)c1CC(F)F [Example 91, 6-chloro-7-(5-chloropyrazin-2-yl)-N-[5-(2,2-difluoroethyl)-4,6-dimethoxy-pyrimidin-2-yl]-1H-indole-3-sulfonamide] |
| 0.028 µM | COc1nc(NS(=O)(=O)c2c[nH]c3c(-c4cccc(C)n4)c(Cl)ccc23)nc(OC)c1OCC(F)F [Example 92, 6-chloro-N-[5-(2,2-difluoroethoxy)-4,6-dimethoxy-pyrimidin-2-yl]-7-(6-methyl-2-pyridyl)-1H-indole-3-sulfonamide] |
| 0.024 µM | COc1nc(NS(=O)(=O)c2c[nH]c3c(-c4cccc(C)n4)c(Cl)ccc23)nc(OC)c1CC(F)F [Example 93, 6-chloro-N-[5-(2,2-difluoroethyl)-4,6-dimethoxy-pyrimidin-2-yl]-7-(6-methyl-2-pyridyl)-1H-indole-3-sulfonamide] |
| 0.02 µM | COc1nc(NS(=O)(=O)c2c[nH]c3c(-c4cccc(C)n4)c(Cl)ccc23)nc(OC)c1OC(F)F [Example 94, 6-chloro-N-[5-(difluoromethoxy)-4,6-dimethoxy-pyrimidin-2-yl]-7-(6-methyl-2-pyridyl)-1H-indole-3-sulfonamide] |
| 0.046 µM | COc1nc(NS(=O)(=O)c2c[nH]c3c(-c4ccnnc4)c(Cl)ccc23)nc(OC)c1OCC(F)F [Example 95, 6-chloro-N-[5-(2,2-difluoroethoxy)-4,6-dimethoxy-pyrimidin-2-yl]-7-pyridazin-4-yl-1H-indole-3-sulfonamide] |
| 0.032 µM | COc1nc(NS(=O)(=O)c2c[nH]c3c(-c4cc(C)ncn4)c(Cl)ccc23)nc(OC)c1OCC(F)F [Example 96, 6-chloro-N-[5-(2,2-difluoroethoxy)-4,6-dimethoxy-pyrimidin-2-yl]-7-(6-methylpyrimidin-4-yl)-1H-indole-3-sulfonamide] |
| 0.034 µM | COc1nc(NS(=O)(=O)c2c[nH]c3c(-c4nccnc4F)c(Cl)ccc23)nc(OC)c1CC(F)F [Example 97, 6-chloro-N-[5-(2,2-difluoroethyl)-4,6-dimethoxy-pyrimidin-2-yl]-7-(3-fluoropyrazin-2-yl)-1H-indole-3-sulfonamide] |

| IC50 | Structure (SMILES) |
| --- | --- |
| 0.035 µM | COc1nc(NS(=O)(=O)c2c[nH]c3c(-c4nccnc4F)c(Cl)ccc23)nc(OC)c1OCC(F)F [Example 98, 6-chloro-N-[5-(2,2-difluoroethoxy)-4,6-dimethoxy-pyrimidin-2-yl]-7-(3-fluoropyrazin-2-yl)-1H-indole-3-sulfonamide] |
| 0.038 µM | COc1nc(NS(=O)(=O)c2c[nH]c3c(-c4nccnc4F)c(Cl)ccc23)nc(OC)c1OC(F)F [Example 99, 6-chloro-N-[5-(difluoromethoxy)-4,6-dimethoxy-pyrimidin-2-yl]-7-(3-fluoropyrazin-2-yl)-1H-indole-3-sulfonamide] |
| 0.04 µM | COc1nc(NS(=O)(=O)c2c[nH]c3c(-c4ncccc4C)c(Cl)ccc23)nc(OC)c1OCC(F)F [Example 100, 6-chloro-N-[5-(2,2-difluoroethoxy)-4,6-dimethoxy-pyrimidin-2-yl]-7-(3-methyl-2-pyridyl)-1H-indole-3-sulfonamide] |
| 0.043 µM | COc1nc(NS(=O)(=O)c2c[nH]c3c(-c4cn(C)nn4)c(Cl)ccc23)nc(OC)c1OCC(F)F [Example 101, 6-chloro-N-[5-(2,2-difluoroethoxy)-4,6-dimethoxy-pyrimidin-2-yl]-7-(1-methyltriazol-4-yl)-1H-indole-3-sulfonamide] |
| 0.042 µM | COc1nc(NS(=O)(=O)c2c[nH]c3c(-c4ncccc4C)c(Cl)ccc23)nc(OC)c1CC(F)F [Example 102, 6-chloro-N-[5-(2,2-difluoroethyl)-4,6-dimethoxy-pyrimidin-2-yl]-7-(3-methyl-2-pyridyl)-1H-indole-3-sulfonamide] |
| 0.054 µM | COc1nc(NS(=O)(=O)c2c[nH]c3c(-c4ncccc4C)c(Cl)ccc23)nc(OC)c1OC(F)F [Example 103, 6-chloro-N-[5-(difluoromethoxy)-4,6-dimethoxy-pyrimidin-2-yl]-7-(3-methyl-2-pyridyl)-1H-indole-3-sulfonamide] |
| 0.113 µM | COc1nc(NS(=O)(=O)c2c[nH]c3c(-c4ncn(C)n4)c(Cl)ccc23)nc(OC)c1OCC(F)F [Example 104, 6-chloro-N-[5-(2,2-difluoroethoxy)-4,6-dimethoxy-pyrimidin-2-yl]-7-(1-methyl-1,2,4-triazol-3-yl)-1H-indole-3-sulfonamide] |
| 0.221 µM | COc1nc(NS(=O)(=O)c2c[nH]c3c(-c4ncc(F)cn4)c(Cl)ccc23)nc(OC)c1OCC(F)F [Example 105, 6-chloro-N-[5-(2,2-difluoroethoxy)-4,6-dimethoxy-pyrimidin-2-yl]-7-(5-fluoropyrimidin-2-yl)-1H-indole-3-sulfonamide] |
| 0.034 µM | COc1nc(NS(=O)(=O)c2c[nH]c3c(-c4cnn(C)n4)c(Cl)ccc23)nc(OC)c1OCC(F)F [Example 106, 6-chloro-N-[5-(2,2-difluoroethoxy)-4,6-dimethoxy-pyrimidin-2-yl]-7-(2-methyltriazol-4-yl)-1H-indole-3-sulfonamide] |
| 0.076 µM | COc1nc(NS(=O)(=O)c2c[nH]c3c(-c4cnn(C)n4)c(Cl)ccc23)nc(OC)c1OC(F)F [Example 107, 6-chloro-N-[5-(difluoromethoxy)-4,6-dimethoxy-pyrimidin-2-yl]-7-(2-methyltriazol-4-yl)-1H-indole-3-sulfonamide] |
| 0.032 µM | COc1nc(NS(=O)(=O)c2c[nH]c3c(-c4cnn(C)n4)c(Cl)ccc23)nc(OC)c1CC(F)F [Example 108, 6-chloro-N-[5-(2,2-difluoroethyl)-4,6-dimethoxy-pyrimidin-2-yl]-7-(2-methyltriazol-4-yl)-1H-indole-3-sulfonamide] |
| 0.036 µM | COc1nc(NS(=O)(=O)c2c[nH]c3c(-c4cnn(C)n4)c(Cl)ccc23)nc(OC)c1OCCF [Example 109, 6-chloro-N-[5-(2-fluoroethoxy)-4,6-dimethoxy-pyrimidin-2-yl]-7-(2-methyltriazol-4-yl)-1H-indole-3-sulfonamide] |
| 0.046 µM | COc1nc(NS(=O)(=O)c2c[nH]c3c(-c4nnco4)c(Cl)ccc23)nc(OC)c1OCC(F)F [Example 110, 6-chloro-N-[5-(2,2-difluoroethoxy)-4,6-dimethoxy-pyrimidin-2-yl]-7-(1,3,4-oxadiazol-2-yl)-1H-indole-3-sulfonamide] |
| 0.053 µM | COc1nc(NS(=O)(=O)c2c[nH]c3c(-c4cnn(C)c4)c(Cl)ccc23)nc(OC)c1OCC(F)F [Example 111, 6-chloro-N-[5-(2,2-difluoroethoxy)-4,6-dimethoxy-pyrimidin-2-yl]-7-(1-methylpyrazol-4-yl)-1H-indole-3-sulfonamide] |
| 0.052 µM | COc1nc(NS(=O)(=O)c2c[nH]c3c(-c4cnn(C)c4)c(Cl)ccc23)nc(OC)c1OCCF [Example 112, 6-chloro-N-[5-(2-fluoroethoxy)-4,6-dimethoxy-pyrimidin-2-yl]-7-(1-methylpyrazol-4-yl)-1H-indole-3-sulfonamide] |
